# Measured values: US20220002226A1, “Amorphous Form of Chelating Agents and Process for Preparing them” (Hovione Scientia Limited, priority 2018, published 2022)
# Tests used:
# [1] = Solubility test according to European Pharmacopoeia (Ph. Eur. 5.11): increasing amounts of water added to 100 mg of powder; assay type: physicochemical; details: 22° C.; for 100 mg dissolved in stated volume of water (YES/No): 100 mg powder
# Procedure: Characters section in monographs. This was used in the tests below.
# Solubility was assessed using the European Pharmacopeia method referred to above where increasing amounts of water are added to 100 mg of powder until its complete dissolution (or otherwise).
# Characters section in monographs.
# [2] = cited from earlier work
# [3] = 0.1 ml water, Ph. Eur. class Very soluble
# [4] = 1.0 ml water, Ph. Eur. class Freely soluble
# [5] = 3.0 ml water, Ph. Eur. class Soluble
# [6] = 10.0 ml water, Ph. Eur. class Sparingly soluble
# [7] = 20.0 ml water, Ph. Eur. class Slightly soluble
# [8] = 30.0 ml water, Ph. Eur. class Very slightly soluble
# [9] = 40.0 ml water, Ph. Eur. class Insoluble
# [10] = 50.0 ml water, Ph. Eur. class printed Insoluble (Tables 2, 6), Very slightly soluble (Table 4)
# [11] = 60.0 ml water, Ph. Eur. class Insoluble
# [12] = 70.0 ml water, Ph. Eur. class Insoluble
# [13] = 80.0 ml water, Ph. Eur. class Insoluble
Structure (SMILES),"100 mg dissolved in stated volume of water (YES/No) [1, 3]","100 mg dissolved in stated volume of water (YES/No) [1, 4]","100 mg dissolved in stated volume of water (YES/No) [1, 5]","100 mg dissolved in stated volume of water (YES/No) [1, 6]","100 mg dissolved in stated volume of water (YES/No) [1, 7]","100 mg dissolved in stated volume of water (YES/No) [1, 8]","100 mg dissolved in stated volume of water (YES/No) [1, 9]","100 mg dissolved in stated volume of water (YES/No) [1, 10]","100 mg dissolved in stated volume of water (YES/No) [1, 11]","100 mg dissolved in stated volume of water (YES/No) [1, 12]","100 mg dissolved in stated volume of water (YES/No) [1, 13]",solubility in water (prior-art statement) [2],"solubility compared with the corresponding crystalline form ([1]; Ph. Eur. solubility test, water)"
"O=C(O)CN(CCN(CC(=O)O)CC(=O)O)CCN(CC(=O)O)CC(=O)O [DTPA Crystalline Industrial grade, diethylenetriaminepentaacetic acid]",No,No,No,No,No,No,No,No,No,No,YES,–,–
"O=C(O)CN(CCN(CC(=O)O)CC(=O)O)CCN(CC(=O)O)CC(=O)O [DTPA, diethylenetriaminepentaacetic acid]",–,–,–,–,–,–,–,–,–,–,–,soluble in water only at higher pH (around 8),–
"O=C(O)CN(CCN(CC(=O)O)CC(=O)O)CCN(CC(=O)O)CC(=O)O [DTPA Crystalline pharma grade, diethylenetriaminepentaacetic acid]",No,No,No,No,No,No,No,No,No,No,YES,–,–
"O=C(O)CN(CCN(CC(=O)O)CC(=O)O)CCN(CC(=O)O)CC(=O)O [DTPA Amorphous pharma grade, diethylenetriaminepentaacetic acid]",No,No,No,No,No,YES,–,–,–,–,–,–,higher solubility
